Laboratory results reported in patent US7803600B2 (priority 2002, dated 2010).

Legend:
[1] = tested on: COR-L23 cells; assay: Cell proliferation assay (MTT), COR-L23 parental; type: cell-based; conditions: Homo sapiens, 96 h, 4-day incubation, mean ± SE of at least two experiments, read-out: Sensitivity to cell killing, IC50
Protocol: (§1) The activity of the compound of formula (I) on P-glycoprotein- or Multidrug Resistant Protein-expressing tumour cell lines and respective parental cells, K562/C1,000+ and K562A7, COR-L23/R and COR-L23, was compared to that of a known substrate for P-glycoprotein/Multidrug Resistant Protein, adriamycin.
(§2) All samples tested were dissolved in DMSO and further dilutions (typically 1:1,000) were made in culture medium, with final DMSO concentrations never exceeding 0.1% (v/v) in cell proliferation assays. MTT [3-(4,5-dimethylthiazol-2-yl)-2,5-diphenyltetrazolium bromide], MTS [3-(4,5-dimethylthiazol-2-yl)-5-(3-carboxymethoxyphenyl)-2-(4-sulfophenyl)-2H-tetrazolium inner salt] and PMS [phenazine methosulfate] were dissolved in phosphate-buffered saline (PBS).
(§3) MTT and MTS are both tetrazolium salts widely used in cell proliferation and toxicity tests. Upon entry in a viable cell, these tetrazolium salts are (bio)reduced to an intensely colored formazan derivative. In case of MTT, the formed formazan is crystalline and needs to be dissolved before colorimetric quantification. MTS needs an intermediate electron acceptor (PMS) for its efficient reduction into a soluble formazan end product and is used for suspension cell lines. […]

[2] = tested on: K562A7 parental leukemia cells; assay: Cell proliferation assay (MTS/PMS), K562A7 parental; type: cell-based; conditions: Homo sapiens, 96 h, 4-day incubation, mean ± SE of at least two experiments, read-out: Sensitivity to cell killing, IC50
Protocol: as §1, §2, §3

[3] = tested on: COR-L23/R cells; assay: Cell proliferation assay (MTT), COR-L23/R Multidrug Resistant Protein overexpressing; type: cell-based, human
Protocol: as §1, §2, §3

[4] = tested on: K562/C1,000+ cells; assay: Cell proliferation assay (MTS/PMS), K562/C1,000+ P-glycoprotein overexpressing; type: cell-based, human
Protocol: as §1, §2, §3

COc1cccc2c1C(=O)c1c(O)c3c(c(O)c1C2=O)C[C@@](O)(C(=O)CO)C[C@@H]3O[C@H]1C[C@H](N)[C@H](O)[C@H](C)O1 [Adriamycin, adriamycin]
IC50 [1]: 36.6 ± 19.1 nM
IC50 [2]: 26.8 ± 5.82 nM
Resistance to cell killing as compared to parental cell line ([3]; COR-L23/R versus parental COR-L23): 20 fold
IC50 ([3]; Homo sapiens, 96 h, COR-L23/R Multidrug Resistant Protein overexpressing cells, 4-day incubation, mean ± SE of at least two experiments, read-out: Sensitivity to cell killing, IC50): 676 ± 261 nM
IC50 ([4]; Homo sapiens, 96 h, K562/C1,000+ P-glycoprotein overexpressing cells, 4-day incubation, mean ± SE of at least two experiments, read-out: Sensitivity to cell killing, IC50): 7830 nM
Resistance to cell killing as compared to parental cell line ([4]; K562/C1,000+ versus parental K562A7): 250 fold
